Data taken from US11084789B2, “Mast-cell modulators and uses thereof” (Beth Israel Deaconess Medical Center, Inc., priority 2016, dated 2021).
Entries after “also recorded” stand apart in the source; their conditions may differ.

Experiments:
TNFα = TNFα protein secretion by activated RBL cells (ELISA); assay type: cell-based, rodent; details: secreted TNFα (pre-stored plus de novo) 4 hours after Ca2+ re-exposure
Protocol: (§1) [Ca^2+]ER in RBL2H3 cells were depleted by Tg in the same manner in the presence of the CRAC channel blockers as for [Ca^2+]i measurement but without loading the cells with Fluo-4NW. Then 200 μl of DMEM-3% FBS (containing 3 mM Ca^2+) was supplemented back in the presence of the corresponding concentration of CRAC channel blockers. Thirty minutes after Ca^2+-add back culture supernatant was collected for degranulation measurement. Degranulation was measured as secreted β-hexosaminidase according to the protocol of the assay kit (Sigma-Aldrich, MO, USA). Nuclear fraction was prepared from the cells for NFAT by using a subcellular protein fractionation kit (NE-PER™ Nuclear and Cytoplasmic Extraction Reagents, Pierce Biotechnology, Thermo Fisher Scientific, MA, USA). Nuclear NFAT-c1 was measured with an ELISA kit (Active Motif, CA, USA). At this time point TNFα was measured as pre-stored release with ELISA kits (R&D Systems, MN, USA). In a part after Ca^2+ add back incubation was prolonged for 4 h to measure de novo production of the cytokine TNFα.
(§2) IC50 and EC50 were calculated by nonlinear regression using Prims Graphpad software. Statistical analysis was performed by one-way ANOVA and post-hoc test (Tukey's test).
Mast cells can secrete pre-stored TNFα immediately upon activation, as well as de novo synthesized TNFα that takes a few hours to produce. RBL cells were activated similarly as described above, in the presence of various concentrations of a CRAC channel blocker. 4 Hours after RBL cells were re-exposed to Ca^2+, secreted TNFα (which accounted for the combined protein from pre-stored and de novo synthesized TNFα) in the supernatants were measured by ELISA.

RBL-2H3 cells = assay: Mast cell degranulation: β-hexosaminidase release from thapsigargin-activated RBL-2H3 cells; assay type: cell-based, rodent; details: 1 μM thapsigargin
Protocol: as §1
Compound 12 was used to determine the inhibition of MC degranulation by measuring the release of pre-stored β-hexosaminidase 03-hex) upon MC activation. […] 30 Minutes after assay media were replenished with extracellular Ca^2+, supernatants and cell lysates were analyzed for β-hex concentrations by ELISA.

NFAT-c1 = assay: Nuclear translocation of NFAT in activated RBL cells (nuclear NFAT-c1 ELISA); assay type: cell-based, rodent
Protocol: as §1
The inhibition of nuclear translocation of the nuclear factor of activated T-cells (NFAT) by compound 12 in activated MCs was determined. […] Nuclear fraction was prepared from the cells by subcellular protein fractionation, and the nuclear NFAT-c1 content was measured by ELISA. […]

[1] = test system: macrophages in skin of DM mice; assay: M1/M2 macrophages in intact skin of diabetic mice; assay type: in vivo
Text: (§3) C57B16 mice were made diabetic (DM) using Streptozotocin (STZ) and rabbits were made DM using alloxan. A 10-day wound-healing period was chosen since at least 80% wounds in non-DM mice and rabbits heal by that time-point. A dressing based on an alginate bandage for topical sustained release of Compound 1 was generated following the methods described in WO 2014/169250, and was then applied the shaved dorsum of DM mice either before (pre-wound) or after wounds (post-wound) were introduced. A comparison was made with the FDA-approved MC stabilizer, disodium cromoglycate (DSCG), 50 mg/kg DSCG (Intraperitoneal (ip) daily, 10 consecutive days prior to wounding) in non-DM and DM mice followed by wound procedure. Wound healing was monitored for 10 days.

[2] = test system: wounds of diabetic (STZ) C57B16 mice; assay: Wound healing in diabetic mice; assay type: in vivo; details: DM mice
Text: as §3

CRAC channel = CRAC channel (Rattus norvegicus, UniProt Q5M848); assay: Inhibition of thapsigargin-induced calcium influx (intracellular Ca2+, Fluo-4NW) in RBL-2H3 cells; assay type: cell-based, rodent; details: 1 μM thapsigargin, 60 min compound incubation
Protocol: RBL-2H3 cells (ATCC) were seeded in 96-well plate at 4×10^4 cells per well in DMEM-supplemented with 2% FBS and allowed to adhere overnight. Culture medium was then replaced with 50 μl of Ca^2+-free Tyrode solution to load Ca^2+-probe Fluo-4NW (Molecular Probe, Thermo Fisher, MA, USA) at 1:1 to the cells. New compound at indicated concentration was supplied during the probe loading from the beginning. Cells were incubated in the presence or absence of new compound for 60 minutes in the Ca^2+-free medium at 37° C. During the last 5 minutes of incubation, cells were treated with 1 μM thapsigargin (Sigma Aldrich) to deplete [Ca^2+]ER. 20 mM CaCl2 in saline solution was supplemented back to the [Ca^2+]ER-depleted cells to be 2 mM as final. Cell medium was removed 1 minute after Ca^2+ reloading, and changes in Fluo-4NW fluorescence (RFU) were recorded with the multi-mode plate reader (FilterMax F5, Molecular Devices/Thermo Fisher Scientific, MA, USA) at an excitation wavelength of 485 nm and an emission wavelength of 535 nm.
as §2
Inhibitory activity of calcium influx by the described compounds was determined using the RBL-2H3 rodent MC cell line as the primary in vitro assay. […]

Sequence of CRAC channel (Q5M848 whole entry): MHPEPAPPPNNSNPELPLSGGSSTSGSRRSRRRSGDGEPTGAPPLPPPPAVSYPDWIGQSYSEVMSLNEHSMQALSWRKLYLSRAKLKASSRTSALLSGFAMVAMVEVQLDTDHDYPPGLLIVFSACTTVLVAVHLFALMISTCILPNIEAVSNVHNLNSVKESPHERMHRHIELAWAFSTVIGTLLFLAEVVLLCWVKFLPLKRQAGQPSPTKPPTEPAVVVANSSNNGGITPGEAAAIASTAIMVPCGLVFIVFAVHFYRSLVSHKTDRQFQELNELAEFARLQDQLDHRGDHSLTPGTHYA
Sequence of CRAC channel (P84903 23-685, further chain): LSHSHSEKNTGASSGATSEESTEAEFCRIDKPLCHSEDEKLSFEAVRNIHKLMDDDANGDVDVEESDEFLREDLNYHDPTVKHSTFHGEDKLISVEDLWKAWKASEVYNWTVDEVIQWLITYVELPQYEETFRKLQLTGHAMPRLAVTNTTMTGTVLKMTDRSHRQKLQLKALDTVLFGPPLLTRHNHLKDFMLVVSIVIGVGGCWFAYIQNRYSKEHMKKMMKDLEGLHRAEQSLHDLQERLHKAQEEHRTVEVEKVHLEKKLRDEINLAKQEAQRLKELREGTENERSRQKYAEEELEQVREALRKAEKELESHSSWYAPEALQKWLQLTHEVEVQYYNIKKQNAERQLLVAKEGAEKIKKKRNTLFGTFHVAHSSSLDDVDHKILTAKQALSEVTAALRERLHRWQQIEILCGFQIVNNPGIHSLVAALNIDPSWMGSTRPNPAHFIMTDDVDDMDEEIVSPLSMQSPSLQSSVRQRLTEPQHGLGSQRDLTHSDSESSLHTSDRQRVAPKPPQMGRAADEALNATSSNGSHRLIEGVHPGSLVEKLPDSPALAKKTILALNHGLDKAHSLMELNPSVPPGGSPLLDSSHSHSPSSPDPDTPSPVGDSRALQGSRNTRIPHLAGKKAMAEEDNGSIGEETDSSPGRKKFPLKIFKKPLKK

Molecule `O=C(Nc1ccc(F)cc1F)c1nn(Cc2ccc(Cl)cc2Cl)c2ccccc12` [Compound 14, 1-[(2,4-dichlorophenyl)methyl]-N-(2,4-difluorophenyl)indazole-3-carboxamide] has an IC50 (TNFα) of 640 nM.

`O=C(Nc1nn(Cc2ccc(Cl)cc2Cl)c2ccccc12)c1ccncc1F` [Compound 12, N-[1-[(2,4-dichlorophenyl)methyl]indazol-3-yl]-3-fluoro-pyridine-4-carboxamide] was tested, and the “inhibition of β-hex release at the highest concentration tested” value (RBL-2H3 cells; 40% of β-hex released without inhibitor) was “nearly complete inhibition of β-hex release”, the “inhibition of β-hex release” value (RBL-2H3 cells; 30 min after Ca2+ add back, various concentrations) was “significantly and dose-dependently inhibited the release of β-hex; also recorded: dose-dependent inhibition” and the “nuclear fraction of NFAT-c1 in activated RBL cells” value (NFAT-c1; 1 μM thapsigargin, 30 min after Ca2+ add back, various concentrations, 5-fold increase without blocker) was “significantly and dose-dependently reduced the nuclear fraction of NFAT-c1; also recorded: dose-dependent inhibition”. For the same molecule, the “levels of nuclear NFAT at 10 μM and higher concentrations” value (NFAT-c1; 10 μM and higher, activated RBL cells) was “restore the levels of nuclear NFAT to that of resting MCs” and the IC50 (TNFα) was 280 nM.

In the case of `O=C(Nc1c(F)cccc1F)c1cn(Cc2ccc(Cl)cc2Cl)c2ccccc12` [Compound 1, 1-[(2,4-dichlorophenyl)methyl]-N-(2,6-difluorophenyl)indole-3-carboxamide], the “number of M2 macrophages in skin” value ([1]; treatment for 10 days without any wound) is reported as “increased the number of M2 macrophages” and the wound healing ([2]; topical alginate dressing, 10 days pre-wounding or 10 days post-wounding, monitored 10 days) is reported as “improved wound healing similar to systemic DSCG pre-treatment”.

For `O=C(Nc1c(F)cncc1F)c1nn(Cc2ccc(Cl)cc2Cl)c2ccccc12` [Compound 15, 1-[(2,4-dichlorophenyl)methyl]-N-(3,5-difluoro-4-pyridyl)indazole-3-carboxamide], the IC50 (TNFα) was 140 nM.

`O=C([O-])c1cc(=O)c2c(OCC(O)COc3cccc4oc(C(=O)[O-])cc(=O)c34)cccc2o1.[Na+].[Na+]` [DSCG, disodium cromoglycate, reference compound] was tested, and the “M1/M2 ratio in intact skin” value ([1]; DSCG treatment) was “reduced M1/M2 ratio in intact skin” and the wound healing ([2]; 50 mg/kg ip daily, 10 consecutive days prior to wounding, p<0.05) was “improved diabetic mouse wound healing”.

In the case of `O=C(Nc1c(F)cccc1Cl)c1nn(Cc2ccc(Cl)cc2Cl)c2ccccc12` [Compound 8, N-(2-chloro-6-fluoro-phenyl)-1-[(2,4-dichlorophenyl)methyl]indazole-3-carboxamide], the IC50 (TNFα) is reported as 740 nM.

With `O=C(Nc1c(F)cccc1F)c1nn(Cc2ccc(Cl)cc2Cl)c2ccccc12` [Compound 7, 1-[(2,4-dichlorophenyl)methyl]-N-(2,6-difluorophenyl)indazole-3-carboxamide] the IC50 (TNFα) was 470 nM.

`O=C(Nc1nn(Cc2ccc(Cl)cc2Cl)c2ccccc12)c1ccccc1F` [Compound 3, N-[1-[(2,4-dichlorophenyl)methyl]indazol-3-yl]-2-fluoro-benzamide] gave an IC50 (CRAC channel) of 29000 nM.

With `O=C(Nc1ccncc1F)c1cn(Cc2ccc(Cl)cc2Cl)c2ccccc12` [Compound 11, 1[(2,4-dichlorophenyl)methyl]-N-(3-fluoro-4-pyridyl)indole-3-carboxamide] the IC50 (TNFα) was 580 nM.
